Source: PMC11484861 (Nature Communications, 2024)

System: SARS-CoV-2 M protein level
Assay type: cell-based, human

CCN(CC)CCCC(C)Nc1ccnc2cc(Cl)ccc12 (stereo not drawn) [CQ, chloroquine]
IMβ3-5-promoted degradation of M, VP2 and PB1-F2: blocked
decrease in M protein levels induced by SQSTM1: rescued

COC[C@H]1OC(=O)c2coc3c2[C@@]1(C)C1=C(C3=O)[C@@H]2CCC(=O)[C@@]2(C)C[C@H]1OC(C)=O [wortmannin]
decrease in M protein levels induced by SQSTM1: rescued
